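Five compound concentrations were applied to cells in 96-well plates for 48 hours; endpoints were derived by simple linear interpolation of the resulting dose-response curve. Here, GI50 denotes the concentration required for 50% inhibition of growth. TGI: total growth inhibition.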
System: HCC-2998 colon
Assay: inhibition of tumour cell growth, NCI panel, 48 h

| Structure (SMILES) | GI50 | TGI |
| --- | --- | --- |
| O=C(NNc1cnccn1)c1nc2cc(F)ccc2n2cccc12 | 2.88 µM | > 100 µM |
| NCCCOc1cc(Cl)ccc1NC(=O)c1cc2ccccc2cc1OCCCN | 1.39 µM | 2.82 µM |
| NCCCOc1cc2ccccc2cc1C(=O)NCCCOc1cc2ccccc2cc1C(=O)Nc1ccc(Cl)cc1O | 0.992 µM | 2.48 µM |
| O=C1C2[C@@H](C(=O)N1c1ccc(Br)cc1)C13C(=CC2([N+](=O)[O-])[C@@H]2C(=O)N(c4ccc(Br)cc4)C(=O)[C@@H]21)c1ccccc1N3c1ccccc1 (stereo partly specified) |  | > 100 µM |
| CCOC(=O)C1=C(N)Oc2c(sc3c(C)cccc23)C1c1ccc(F)cc1 (stereo unspecified) | 1.72 µM | 8.78 µM |
| O=C1/C(=C/N2N=C(c3ccc4ccccc4c3)CC2c2ccccc2O)SC(=S)N1c1cccnc1 (stereo unspecified) | 3.06 µM | > 100 µM |
| NC(N)=N/N=C(\N=Nc1ccccc1)c1ccc(Cl)cc1 | 2.14 µM | 4.68 µM |
| Nc1ccc(C2=N/C(=C\c3cccc(N)c3)C(=O)O2)cc1 |  | > 100 µM |
| c1ccc2c(c1)c1ccccc1c1ccccc21 | > 100 µM | > 100 µM |
| NC(=O)CNc1ccc([As]=[As]c2ccc(NCC(N)=O)cc2)cc1 (stereo unspecified) | 13.9 µM | 29.7 µM |

System: UO-31 renal
Assay: inhibition of tumour cell growth, NCI panel, 48 h

| Structure (SMILES) | TGI | GI50 |
| --- | --- | --- |
| CCc1cccc(C)c1NC(=O)CC1C(=O)Nc2ccccc2S1=O (stereo unspecified) | > 100 µM |  |
| Cc1ccc(N2C(=O)N(c3ccc(C)cc3)C3(SC=NN3C)C2=O)cc1 (stereo unspecified) | > 100 µM |  |
| O=C1c2ccc3c4ccccc4n(-c4ccccc4)c3c2C(=O)N1c1ccc(Cl)cc1 | > 100 µM |  |
| Cc1ccc2c(c1-c1ccccc1)C(=O)OC2 | > 100 µM |  |
| CCC[CH2][Sn]1([CH2]CCC)[O]CC(COc2c(Cl)cc(Cl)cc2Cl)[O]1 (stereo unspecified) | 3.21 µM | 1.68 µM |
| NC(CCc1ncc(C(=O)O)s1)C(=O)O (stereo unspecified) | > 100 µM |  |
| CSc1ccc2c(cc1=O)[C@@H](NC(=O)c1cc(O)c(O)c(O)c1)CCc1cc(O)c(O)c(O)c1-2 | 83.8 µM |  |
| COc1cc(-c2nnc3n2NC=C(C(=O)O)S3)cc(OC)c1OC | > 100 µM |  |
| C[P+](C)(C)c1ccccc1 | > 100 µM |  |
| O=C1c2ccccc2C(=O)N1C/C=N/NS(=O)(=O)c1ccc(Br)cc1 | > 100 µM |  |
| COc1cc(/C=C/C(=O)Oc2ccccc2)ccc1C(=O)O/C=C/c1ccccc1 | > 100 µM |  |
| NC(=O)c1cn(Cc2ccccc2)c(=O)n1Cc1ccccc1 | > 100 µM |  |
| CCOC(=O)C(C)(c1c(C)[nH]c2ccccc12)c1c(C)[nH]c2ccccc12 | 35 µM |  |
| Cc1c(Cl)cccc1NC(=O)c1cccc([N+](=O)[O-])c1O | 40.5 µM |  |
| CC1COS(=O)O1 (stereo unspecified) | > 100 µM |  |
| CC1CCC(C(C)(C)c2ccccc2)C(=O)C1 (stereo unspecified) | > 100 µM |  |
| O=C1CC2CCN(C(=O)c3ccccc3)CC2CCN1 (stereo unspecified) | > 100 µM |  |
| O=C1C=CC(=CC=C2C=CN(CCCCCCCCCCC(=O)NCCCCCCCCCCCC(=O)O)C=C2)C=C1 | > 100 µM |  |
| CNC(C)[C@H]1CCC2C3CC=C4C(=O)[C@@H](NC(=O)C=C(C)C)CC[C@]4(C)C3CC[C@@]21C (stereo partly specified) | 3.14 µM | 1.33 µM |

| Structure (SMILES) | TGI | GI50 |
| --- | --- | --- |
| Clc1nc(Cl)c2ncn(Cc3ccccc3Cn3cnc4c(Cl)nc(Cl)nc43)c2n1 | 3.85 µM | 1.91 µM |
| C1COCCSC2=C(SCCO1)SC(=C1SC3=C(SCCOCCOCCS3)S1)S2 | > 100 µM |  |
| O=C(Nc1ccc(Cl)cc1)Nc1nccs1 | > 100 µM | 4.29 µM |
| CC(C)(C)c1cc(C(=O)/C=C/c2ccc(C(=O)O)cc2)cc(C(C)(C)C)c1 | 17.8 µM |  |
| COc1cc(/C=N\O[Si](C)(C)C(C)(C)C)ccc1O[Si](C)(C)C(C)(C)C | > 100 µM |  |
| Cc1noc2c1-c1ccccc1C(c1ccc(Cl)cc1)=N[C@H]2CC(N)=O | > 100 µM | 0.283 µM |
| O=C(N/N=C/c1ccc(O)cc1O)c1cccnc1 | > 100 µM | 1.46 µM |
| O=C(NNc1cnccn1)c1nc2cc(F)ccc2n2cccc12 | > 100 µM | 0.261 µM |
| NCCCOc1cc(Cl)ccc1NC(=O)c1cc2ccccc2cc1OCCCN | 2.65 µM | 1.2 µM |
| NCCCOc1cc2ccccc2cc1C(=O)NCCCOc1cc2ccccc2cc1C(=O)Nc1ccc(Cl)cc1O | 1.78 µM | 0.355 µM |
| O=C1C2[C@@H](C(=O)N1c1ccc(Br)cc1)C13C(=CC2([N+](=O)[O-])[C@@H]2C(=O)N(c4ccc(Br)cc4)C(=O)[C@@H]21)c1ccccc1N3c1ccccc1 (stereo partly specified) | 38.7 µM |  |
| CCOC(=O)C1=C(N)Oc2c(sc3c(C)cccc23)C1c1ccc(F)cc1 (stereo unspecified) | 18.3 µM | 0.583 µM |
| O=C1/C(=C/N2N=C(c3ccc4ccccc4c3)CC2c2ccccc2O)SC(=S)N1c1cccnc1 (stereo unspecified) | > 100 µM | 0.852 µM |
| NC(N)=N/N=C(\N=Nc1ccccc1)c1ccc(Cl)cc1 | 6.34 µM | 2.29 µM |
| Nc1ccc(C2=N/C(=C\c3cccc(N)c3)C(=O)O2)cc1 | > 100 µM |  |
| c1ccc2c(c1)c1ccccc1c1ccccc21 | > 100 µM | > 100 µM |
| NCCN.O=C([O-])[O-].O=C([O-])[O-].[Co+3].[K+] | > 100 µM | > 100 µM |
| NC(=O)CNc1ccc([As]=[As]c2ccc(NCC(N)=O)cc2)cc1 (stereo unspecified) | 24.5 µM | 8.21 µM |

System: OVCAR-8 ovarian
Assay: inhibition of tumour cell growth, NCI panel, 48 h

| Structure (SMILES) | TGI | GI50 |
| --- | --- | --- |
| CCc1cccc(C)c1NC(=O)CC1C(=O)Nc2ccccc2S1=O (stereo unspecified) | > 100 µM |  |
| Cc1ccc(N2C(=O)N(c3ccc(C)cc3)C3(SC=NN3C)C2=O)cc1 (stereo unspecified) | > 100 µM |  |
| O=C1c2ccc3c4ccccc4n(-c4ccccc4)c3c2C(=O)N1c1ccc(Cl)cc1 | > 100 µM |  |
| Cc1ccc2c(c1-c1ccccc1)C(=O)OC2 | > 100 µM |  |
| CCC[CH2][Sn]1([CH2]CCC)[O]CC(COc2c(Cl)cc(Cl)cc2Cl)[O]1 (stereo unspecified) | 2.37 µM | 1.12 µM |
| NC(CCc1ncc(C(=O)O)s1)C(=O)O (stereo unspecified) | > 100 µM |  |
| CSc1ccc2c(cc1=O)[C@@H](NC(=O)c1cc(O)c(O)c(O)c1)CCc1cc(O)c(O)c(O)c1-2 | 54.2 µM |  |
| COc1cc(-c2nnc3n2NC=C(C(=O)O)S3)cc(OC)c1OC | > 100 µM |  |
| C[P+](C)(C)c1ccccc1 | > 100 µM |  |
| O=C1c2ccccc2C(=O)N1C/C=N/NS(=O)(=O)c1ccc(Br)cc1 | > 100 µM |  |
| COc1cc(/C=C/C(=O)Oc2ccccc2)ccc1C(=O)O/C=C/c1ccccc1 | > 100 µM |  |
| NC(=O)c1cn(Cc2ccccc2)c(=O)n1Cc1ccccc1 | > 100 µM |  |
| CCOC(=O)C(C)(c1c(C)[nH]c2ccccc12)c1c(C)[nH]c2ccccc12 | 81.7 µM |  |
| Cc1c(Cl)cccc1NC(=O)c1cccc([N+](=O)[O-])c1O | > 100 µM |  |
| CC1COS(=O)O1 (stereo unspecified) | > 100 µM |  |
| CC1CCC(C(C)(C)c2ccccc2)C(=O)C1 (stereo unspecified) | > 100 µM |  |

| Structure (SMILES) | TGI | GI50 |
| --- | --- | --- |
| O=C1CC2CCN(C(=O)c3ccccc3)CC2CCN1 (stereo unspecified) | > 100 µM |  |
| O=C1C=CC(=CC=C2C=CN(CCCCCCCCCCC(=O)NCCCCCCCCCCCC(=O)O)C=C2)C=C1 | > 100 µM |  |
| CNC(C)[C@H]1CCC2C3CC=C4C(=O)[C@@H](NC(=O)C=C(C)C)CC[C@]4(C)C3CC[C@@]21C (stereo partly specified) | 20.2 µM | 3.91 µM |
| Clc1nc(Cl)c2ncn(Cc3ccccc3Cn3cnc4c(Cl)nc(Cl)nc43)c2n1 | 9.12 µM | 2.9 µM |
| C1COCCSC2=C(SCCO1)SC(=C1SC3=C(SCCOCCOCCS3)S1)S2 | > 100 µM |  |
| O=C(Nc1ccc(Cl)cc1)Nc1nccs1 | > 100 µM | 3.39 µM |
| CC(C)(C)c1cc(C(=O)/C=C/c2ccc(C(=O)O)cc2)cc(C(C)(C)C)c1 | 7.13 µM |  |
| COc1cc(/C=N\O[Si](C)(C)C(C)(C)C)ccc1O[Si](C)(C)C(C)(C)C | > 100 µM |  |
| Cc1noc2c1-c1ccccc1C(c1ccc(Cl)cc1)=N[C@H]2CC(N)=O | > 100 µM | 15.2 µM |
| O=C(N/N=C/c1ccc(O)cc1O)c1cccnc1 | 96.3 µM | 2.5 µM |
| O=C(NNc1cnccn1)c1nc2cc(F)ccc2n2cccc12 | > 100 µM | 0.429 µM |
| NCCCOc1cc(Cl)ccc1NC(=O)c1cc2ccccc2cc1OCCCN | 3.59 µM | 1.84 µM |
| NCCCOc1cc2ccccc2cc1C(=O)NCCCOc1cc2ccccc2cc1C(=O)Nc1ccc(Cl)cc1O | 0.557 µM | 0.24 µM |
| O=C1C2[C@@H](C(=O)N1c1ccc(Br)cc1)C13C(=CC2([N+](=O)[O-])[C@@H]2C(=O)N(c4ccc(Br)cc4)C(=O)[C@@H]21)c1ccccc1N3c1ccccc1 (stereo partly specified) | > 100 µM |  |
| CCOC(=O)C1=C(N)Oc2c(sc3c(C)cccc23)C1c1ccc(F)cc1 (stereo unspecified) | 18.1 µM | 0.581 µM |

Reference: PubChem BioAssay (NCI)
